Laboratory results from patent publication US20260223859A1, “PLANT DISEASE CONTROL COMPOSITION COMPRISING CULTURE BROTH OF STREPTOMYCES SP. JCK-6141 STRAIN OR EXTRACT OF CULTURE BROTH OF STRAIN, PREPARATION METHOD THEREFOR AND PLANT DISEASE CONTROL METHOD” (priority 2020, published 2026).
Converted amounts (≈) assume the structure as drawn.

Assays:
Magnaporthiopsis poae = experiment: microbe, parasite or virus in culture; type: cell-based; details: 24 hours at 25° C., read-out: MIC, F61
Gaeumannomyces graminis = experiment: microbe, parasite or virus in culture; type: cell-based; details: 24 hours at 25° C., read-out: MIC, F61
Magnapothe oryzae = experiment: organism not typed; type: cell-based; details: 24 h, read-out: MIC, F61 (μg/ml)
Phytophthora cactorum = experiment: microbe, parasite or virus in culture; type: cell-based; details: 24 hours at 25° C., read-out: MIC, F61
Rhizoctonia solani [1] = experiment: microbe, parasite or virus in culture; type: cell-based; details: 24 hours at 25° C., read-out: MIC, F61
[2] = test system: Fusarium oxysporum f. sp. cucumerinum; experiment: microbe, parasite or virus in culture; type: cell-based; details: 24 hours at 25° C., read-out: MIC, F61
Phythium ultimum = experiment: organism not typed; type: cell-based; details: 24 hours at 25° C.; read-out: MIC, F61
[3] = test system: Fusarium oxysporum f. sp. raphani; experiment: microbe, parasite or virus in culture; type: cell-based; details: 24 hours at 25° C., read-out: MIC, F61
Colletotrichum horii = experiment: microbe, parasite or virus in culture; type: cell-based; details: 24 hours at 25° C., read-out: MIC, F61
Endothia parasitica = experiment: microbe, parasite or virus in culture; type: cell-based; details: Cryphonectria parasitica; 24 hours at 25° C.; read-out: MIC, F61
Phytophthora cinnamomi = experiment: microbe, parasite or virus in culture; type: cell-based; details: 24 hours at 25° C., read-out: MIC, F61
Valsa ceratosperma = experiment: microbe, parasite or virus in culture; type: cell-based; details: Cytospora ceratosperma; 24 hours at 25° C.; read-out: MIC, F61
Botryritis cinerea = experiment: organism not typed; type: cell-based; details: 24 hours at 25° C.; read-out: MIC, F61
Phytophthora cambivora = experiment: microbe, parasite or virus in culture; type: cell-based; details: 24 hours at 25° C., read-out: MIC, F61
Sclerotinia homoeocarpa = experiment: microbe, parasite or virus in culture; type: cell-based; details: Clarireedia homoeocarpa; 24 hours at 25° C.; read-out: MIC, F61
Curvularia lunata = experiment: microbe, parasite or virus in culture; type: cell-based; details: 24 hours at 25° C., read-out: MIC, F61
Fusarium graminearum = experiment: microbe, parasite or virus in culture; type: cell-based; details: 24 h, read-out: MIC, F61 (μg/ml)
Botryoshpaeria dothidea = experiment: organism not typed; type: cell-based; details: 24 hours at 25° C.; read-out: MIC, F61
Rhizoctonia solani [4] = experiment: In vivo control of rice sheath blight (RSB); details: rice cultivar Nakdong
Experimental: The control efficacy of Streptomyces sp. JCK-6141 strain against rice sheath blight (RSB) was examined in vivo. As an experimental plant, the rice cultivar Nakdong (Oryza sativa L.) was used.
One day before pathogen inoculation, the Nakdong rice plants were treated by soil drenching with 10 ml of each of the 3-fold and 9-fold dilutions of the Streptomyces sp. JCK-6141 strain culture in distilled water. After putting an appropriate amount of Nakdong rice bran treated with the dilutions was put into a 1-L culture bottle and sterilized, followed by evenly inoculating finely ground mycelial mass of cultured Rhizoctonia solani into the pots where the rice plants had been grown. After inoculation, incubation was carried out for 3 days in a humid chamber (25° C.) and then for 4 days in an incubator with a relative humidity of 80%. Examination was made of the onset of the disease. As a control, the synthetic chemical fungicide Flutolanil was used at 20 μg/ml or 50 μg/ml concentration.

Puccinia recondite = experiment: In vivo control of wheat leaf rust; details: wheat cultivar Eunpa, 7 days after inoculation

With `CCCCCC[C@@]1(OC(=O)CCC(=O)O)CC[C@]2(CC[C@H](C)[C@@H](C/C=C(C)/C=C/[C@H](O)[C@@H](C)/C=C/C(=O)O)O2)O[C@H]1/C=C/C(C)=C/C(=O)O` [F61, reveromycin E] the MIC (Magnaporthiopsis poae) was 0.0244 µg/mL (≈ 0.0354 µM), the MIC (Gaeumannomyces graminis) was 3.12 µg/mL (≈ 4.54 µM) and the MIC (Magnapothe oryzae) was 0.78 µg/mL (≈ 1.13 µM). The MIC (Phytophthora cactorum) was 0.195 µg/mL (≈ 0.283 µM), the MIC (Rhizoctonia solani [1]) was 1.56 µg/mL (≈ 2.26 µM) and the MIC [2] was 1.56 µg/mL (≈ 2.26 µM). For the same compound, the MIC (Phythium ultimum) was 1.56 µg/mL (≈ 2.26 µM), the MIC [3] was 1.56 µg/mL (≈ 2.26 µM) and the MIC (Colletotrichum horii) was 0.049 µg/mL (≈ 0.0711 µM). The MIC (Endothia parasitica) was 1.56 µg/mL (≈ 2.26 µM), the MIC (Phytophthora cinnamomi) was 0.39 µg/mL (≈ 0.566 µM) and the MIC (Valsa ceratosperma) was 0.78 µg/mL (≈ 1.13 µM). For the same compound, the MIC (Botryritis cinerea) was 1.56 µg/mL (≈ 2.26 µM), the MIC (Phytophthora cambivora) was 0.195 µg/mL (≈ 0.283 µM) and the MIC (Sclerotinia homoeocarpa) was 0.195 µg/mL (≈ 0.283 µM). For the same compound, the MIC (Curvularia lunata) was 0.78 µg/mL (≈ 1.13 µM), the MIC (Fusarium graminearum) was 0.195 µg/mL (≈ 0.283 µM) and the MIC (Botryoshpaeria dothidea) was 0.098 µg/mL (≈ 0.142 µM).
For `CC(C)Oc1cccc(NC(=O)c2ccccc2C(F)(F)F)c1` [Flutolanil], the “RSB Control (%)” value (Rhizoctonia solani [4]; 20 μg/ml) was 100.0 ± 0.0 a %, the “RSB Control (%)” value (Rhizoctonia solani [4]; 50 μg/ml) was 100.0 ± 0.0 a % and the “Wheat leaf rust control (%)” value (Puccinia recondite; 20 μg/ml) was 73.3 ± 6.7 b %. For the same compound, the “Wheat leaf rust control (%)” value (Puccinia recondite; 50 μg/ml) was 100.0 ± 0.0 a %.
